Where two headings read alike, the source gives them in different places. e = 2'-O-(2-methoxyethyl) (MOE); d = 2'-deoxy (DNA)
Legend:
[1] = mouse, in vivo, sc, 50 mg/kg
[2] = mouse, in vivo, sc, 50 mg/kg; remark: listed apart in the source
[3] = mouse, in vivo, sc, 50 mg/kg; remark: listed apart in the source
[4] = rat, in vivo, sc, 50 mg/kg
[5] = rat, in vivo, sc, 50 mg/kg; remark: listed apart in the source
[6] = rat, in vivo, sc, 50 mg/kg; remark: listed apart in the source

Substance | ALT [1] [IU/L] | AST [1] [IU/L] | Bilirubin [1] [mg/dL] | Cholesterol [1] [mg/dL] | BUN [2] [mg/dL] | HCT [3] [%] | Lymphocyte [3] [cells/μL] | Neutrophil [3] [cells/μL] | Platelets [3] | RBC [3] | WBC [3] | hemoglobin [3] [g/dL] | monocytes [3] [cells/μL] | ALT [4] [IU/L] | AST [4] [IU/L] | Albumin [4] | Bilirubin [4] [mg/dL] | BUN [5] [mg/dL] | Creatinine [5] [mg/dL] | Total urine protein [5] [mg/dL] | further results
ISIS 412225: 5-10-5 MOE gapmer GCAGCGGACGGCATTGGTGC (sugars from the 5' end e5 d10 e5, backbone and methylation of C not given here) | 40 | 69 | 0.23 | 128 | 23 | 50 | 4969 | 1547 | 574 10^3/μL | 9 10^6/μL | 7 10^3/μL | 15 | 293 | 48 | 108 | 5 | 0.15 | 23 | 58 | 209 | Urine protein/creatinine ratio [5]: 4.0; HCT [6]: 42%; Lymphocyte [6]: 13204; Neutrophil [6]: 1499; Platelets [6]: 673; RBC [6]: 7.4 10^6/μL; WBC [6]: 15 10^3/μL; hemoglobin [6]: 13.4 g/dL
ISIS 413481: 5-10-5 MOE gapmer GGTGCACAGTTTCTGGCAGG (sugars from the 5' end e5 d10 e5, backbone and methylation of C not given here) | 85 | 143 | 0.18 | 153 | 23 | 45 | 4329 | 1904 | 841 10^3/μL | 9 10^6/μL | 7 10^3/μL | 13 | 204 | 54 | 80 | 4 | 0.22 | 26 | 45 | 148 | Urine protein/creatinine ratio [5]: 3.6; HCT [6]: 43%; Lymphocyte [6]: 12707; Neutrophil [6]: 1046; Platelets [6]: 552; RBC [6]: 7.5 10^6/μL; WBC [6]: 14 10^3/μL; hemoglobin [6]: 14.2 g/dL
ISIS 413482: 5-10-5 MOE gapmer GGACGGCATTGGTGCACAGT (sugars from the 5' end e5 d10 e5, backbone and methylation of C not given here) | 54 | 77 | 0.24 | 138 | 27 | 50 | 5584 | 1958 | 818 10^3/μL | 10 10^6/μL | 8 10^3/μL | 15 | 275 | 59 | 157 | 4 | 0.14 | 23 | 34 | 157 | Urine protein/creatinine ratio [5]: 4.8; HCT [6]: 40%; Lymphocyte [6]: 11430; Neutrophil [6]: 1125; Platelets [6]: 641; RBC [6]: 7.1 10^6/μL; WBC [6]: 13 10^3/μL; hemoglobin [6]: 13.2 g/dL
ISIS 416848: MOE gapmer, nucleobases 1275 to 1318 of SEQ ID NO: 1 (Table 8) (antisense CACAGTTTCTGGCAGGCCTC; MOE gapmer, wing and gap sizes not given here) | 153 | 153 | 0.19 | 151 | 23 | 47 | 5268 | 1264 | 953 10^3/μL | 9 10^6/μL | 7 10^3/μL | 14 | 180 | 89 | 236 | 3 | 0.14 | 26 | 64 | 231 | Urine protein/creatinine ratio [5]: 3.9; HCT [6]: 35%; Lymphocyte [6]: 14316; Neutrophil [6]: 1874; Platelets [6]: 384; RBC [6]: 6.0 10^6/μL; WBC [6]: 17 10^3/μL; hemoglobin [6]: 11.1 g/dL
ISIS 416851: MOE gapmer, nucleobases 1275 to 1318 of SEQ ID NO: 1 (Table 8) (antisense GTGCACAGTTTCTGGCAGGC; MOE gapmer, wing and gap sizes not given here) | 47 | 76 | 0.19 | 106 | 21 | 47 | 4162 | 1619 | 984 10^3/μL | 9 10^6/μL | 6 10^3/μL | 14 | 194 | 64 | 91 | 4 | 0.14 | 24 | 70 | 286 | Urine protein/creatinine ratio [5]: 4.0; HCT [6]: 42%; Lymphocyte [6]: 9911; Neutrophil [6]: 1001; Platelets [6]: 734; RBC [6]: 7.4 10^6/μL; WBC [6]: 11 10^3/μL; hemoglobin [6]: 13.7 g/dL
ISIS 416852: MOE gapmer, nucleobases 1275 to 1318 of SEQ ID NO: 1 (Table 8) (antisense TGGTGCACAGTTTCTGGCAG; MOE gapmer, wing and gap sizes not given here) | 49 | 91 | 0.16 | 125 | 21 | 49 | 3646 | 1241 | 903 10^3/μL | 9 10^6/μL | 5 10^3/μL | 14 | 189 | 49 | 87 | 4 | 0.15 | 25 | 60 | 189 | Urine protein/creatinine ratio [5]: 3.0; HCT [6]: 42%; Lymphocyte [6]: 11956; Neutrophil [6]: 836; Platelets [6]: 632; RBC [6]: 7.2 10^6/μL; WBC [6]: 13 10^3/μL; hemoglobin [6]: 13.4 g/dL
